These results are taken from patent US8563717B2, “Adenine derivatives” (GlaxoSmithKline LLC, priority 2008, dated 2013).

Structures are written as SMILES. Where a name gives a salt, the structure may show the parent alone.

Type in all cases: cell-based
Test [1] has as its system Interferon-α. Briefly: Induction of Interferon-α using fresh human PBMCs. The conditions noted are these: PBMC, 24 hr incubation, relative to 2 μM resiquimod control, read-out: mean pEC50 for induction of IFN-α (converted). As to the method: (§1) Assay for the Induction of Interferon-α and TNF-α Using Fresh Human Peripheral Blood Mononuclear Cells (PBMCs)
(§2) Compounds were dissolved and serially diluted in DMSO to give 100× the required concentration range using a Biomek 2000. 1 ul of test compound was transferred into 96-well tissue culture plates using a Biomek FX. Each compound was assayed in duplicate for each donor. Each plate contained a dilution series of the TLR7/8 agonist resiquimod as standard and Column 11 contained 1 μl of 200 μM resiquimod (giving a 2 μM final concentration, used to define the approximate maximal response to resiquimod).
(§3) Blood samples from two human donors were collected into sodium heparin (10 U/ml). 25 ml volumes of whole blood were overlaid onto 15 mls Histopaque in Leucosep tubes which were centrifuged at 800 g for 20 min and the band at the plasma/histopaque interface carefully removed. The collected cells were centrifuged at 2500 rpm for 10 min. and the pellet resuspended in 10 ml of media (RPMI 1640 (Low endotoxin) supplemented with 10% v/v foetal calf serum (FCS, low endotoxin) 100 U/ml penicillin G, 100 μg/ml streptomycin, 10 mM L-glutamine and 1× non-essential amino acids). A 1:20 dilution of the cells was prepared using trypan blue & the cells counted using a haemocytometer. The PBMCs were diluted to give a final concentration of 2×10^6/ml and 100 ul of this cells suspension was added to wells containing 1 μl of diluted test compound.
(§4) The cell preparations were incubated for 24 hr. (37° C., 95% air, 5% CO2) after which a sample of the supernatant was removed using the Biomek FX and assayed for both IFN-α and TNF-α using the MSD (Mesoscale Discovery) electrochemiluminescence assay platform. The IFN-α assay was carried out similarly to that described above. The TNF-α assay was carried out as per kit instructions (Cat No K111BHB).
(§5) Cytokine released was expressed as a percentage of the 2 μM resiquimod control (column 11). This percentage was plotted against compound concentration and the pEC50 for the response determined by non-linear least squares curve fitting. For the IFN-α responses generally a 4 parameter logistic model was selected. For the TNF responses where a clear maximum response was obtained (i.e. a well defined plateau in the response was observed) then a 4 parameter model was generally used. If the upper asymptote of the curve wasn't well defined then the curve fitting was generally constrained to a maximal response of 100% (i.e., to the response to 2 μM resiquimod) or to the response of the highest concentration tested if this was greater than the resiquimod response. Some curves were bell shaped for one or both cytokines and the cytokine data on the down slope of the bell shaped response (i.e. concentrations above those giving the maximal response) were generally excluded from the fit, usually with the exception of the concentration immediately above the peak response. Curve fitting thus concentrated on the up slope of the dose response curve.

A further test relates to TNF-α. Nature of the test: Induction of TNF-α using fresh human PBMCs. The conditions noted are these: PBMC, 24 hr incubation, relative to 2 μM resiquimod control, read-out: mean pEC50 for induction of TNF-α (converted). As to the method:
as §1, §2, §3, §4, §5

Test [2] relates to Interferon-α. Briefly: Induction of Interferon-α using cryopreserved human PBMCs. The conditions noted are these: PBMC, 24 h incubation, normalised to 1 uM resiquimod, read-out: mean pEC50 for induction of IFN-α (converted). The method in brief:
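Cryopreserved healthy-donor PBMCs at 1×10^6 cells/ml in RPMI/10% FCS with 1000 units/ml IFN-gamma, exposed 24 h at 37 °C to 11-point two-fold compound dilutions. Supernatant IFN-α quantified by MSD electrochemiluminescence immunoassay; pEC50 from 4-parameter fit, normalised to 1 uM resiquimod and DMSO.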

For the compound `CC(C)Oc1nc(N)c2[nH]c(=O)n(CCCCC3CCNCC3)c2n1` [Example 135, 6-Amino-2-[(1-methylethyl)oxy]-9-[4-(4-piperidinyl)butyl]-7,9-dihydro-8H-purin-8-one], the EC50 in the test on Interferon-α [1] was below 0.1 µM; in the test with TNF-α, above 1 µM; in the test on Interferon-α [2], below 1.58 µM.

As to `CCCCOc1nc(N)c2[nH]c(=O)n(CC3CCCN(CCC)C3)c2n1` (stereo not drawn) [Example 23, 6-Amino-2-(butyloxy)-9-[(1-propyl-3-piperidinyl)methyl]-7,9-dihydro-8H-purin-8-one], the EC50 with Interferon-α [1] was below 0.1 µM; in the test on TNF-α, above 1 µM; in the test with Interferon-α [2], below 1.58 µM.

Turning to `CCC[C@H](C)Oc1nc(N)c2[nH]c(=O)n(CCCC3CCNCC3)c2n1` [Example 104, 6-Amino-2-{[(1S)-1-methylbutyl]oxy}-9-[3-(4-piperidinyl)propyl]-7,9-dihydro-8H-purin-8-one], the EC50 was below 0.000316 µM in the test with Interferon-α [1], above 0.0316 µM with TNF-α and below 1.58 µM in the test on Interferon-α [2].

As for `CCCCOc1nc(N)c2[nH]c(=O)n(CC3CCCN(CC)C3)c2n1` (stereo not drawn) [Example 1, 6-Amino-2-butoxy-9-[(1-ethyl-3-piperidinyl)methyl]-7,9-dihydro-8H-purin-8-one], the results for the EC50 with Interferon-α [1], in the test with TNF-α and in the test with Interferon-α [2] were below 0.1 µM, above 1 µM and below 1.58 µM, respectively.

As to `CCCCOc1nc(N)c2[nH]c(=O)n(CCCC3CCCCN3CC(C)C)c2n1` (stereo not drawn) [Example 18, 6-Amino-2-(butyloxy)-9-{3-[1-(2-methylpropyl)-2-piperidinyl]propyl}-7,9-dihydro-8H-purin-8-one], the results for the EC50 in the test with Interferon-α [1], in the test on TNF-α and in the test on Interferon-α [2] were below 0.000316 µM, above 0.0316 µM and below 1.58 µM, respectively.

With `CCCCOc1nc(N)c2[nH]c(=O)n(CCCC3CCN(CCC)CC3)c2n1` [Example 94, 6-Amino-2-(butyloxy)-9-[3-(1-propyl-4-piperidinyl)propyl]-7,9-dihydro-8H-purin-8-one], the EC50 was below 0.001 µM in the test on Interferon-α [1], above 1 µM in the test with TNF-α and below 1.58 µM in the test on Interferon-α [2].

Take `CCCCOc1nc(N)c2[nH]c(=O)n(CCC3CCN(C(C)C)CC3)c2n1` [Example 81, 6-Amino-2-(butyloxy)-9-{2-[1-(1-methylethyl)-4-piperidinyl]ethyl}-7,9-dihydro-8H-purin-8-one]: the values for the EC50 with Interferon-α [1], in the test with TNF-α and in the test on Interferon-α [2] were below 0.1 µM, above 1 µM and below 1.58 µM, respectively.

In the case of `CCCCOc1nc(N)c2[nH]c(=O)n(CCCCCC3CCCN(C(C)C)C3)c2n1` (stereo not drawn) [Example 69, 6-Amino-2-(butyloxy)-9-{5-[1-(1-methylethyl)-3-piperidinyl]pentyl}-7,9-dihydro-8H-purin-8-one], the results for the EC50 with Interferon-α [1], with TNF-α and in the test on Interferon-α [2] were below 0.01 µM, above 1 µM and below 1.58 µM, respectively.

Turning to `CCCCOc1nc(N)c2[nH]c(=O)n(CCC3CCCN(C4CCCCC4)C3)c2n1` (stereo not drawn) [Example 38, 6-Amino-2-(butyloxy)-9-[2-(1-cyclohexyl-3-piperidinyl)ethyl]-7,9-dihydro-8H-purin-8-one], the EC50 is below 0.001 µM in the test on Interferon-α [1], above 1 µM with TNF-α and below 1.58 µM with Interferon-α [2].

With `CCC[C@H](C)Oc1nc(N)c2[nH]c(=O)n(CCC3CCCN(CC)C3)c2n1` (stereo partly drawn) [Example 41, 6-Amino-9-[2-(1-ethyl-3-piperidinyl)ethyl]-2-{[(1S)-1-methylbutyl]oxy}-7,9-dihydro-8H-purin-8-one], the EC50 is below 0.000316 µM in the test on Interferon-α [1], above 0.0316 µM with TNF-α and below 1.58 µM in the test on Interferon-α [2].

As for `CCCCOc1nc(N)c2[nH]c(=O)n(CCCC3CCN(C(C)C)CC3)c2n1` [Example 95, 6-Amino-2-(butyloxy)-9-{3-[1-(1-methylethyl)-4-piperidinyl]propyl}-7,9-dihydro-8H-purin-8-one], the EC50 was below 0.01 µM with Interferon-α [1], above 1 µM with TNF-α and below 1.58 µM in the test with Interferon-α [2].

As to `CCC[C@H](C)Oc1nc(N)c2[nH]c(=O)n(CCC3CCN(CC)CC3)c2n1` [Example 91, 6-Amino-9-[2-(1-ethyl-4-piperidinyl)ethyl]-2-{[(1S)-1-methylbutyl]oxy}-7,9-dihydro-8H-purin-8-one], the EC50 in the test with Interferon-α [1] is below 0.000316 µM; in the test on TNF-α, above 0.0316 µM; with Interferon-α [2], below 1.58 µM.

Turning to `CCC[C@H](C)Oc1nc(N)c2[nH]c(=O)n(CCCC3CCN(C(C)C)CC3)c2n1` [Example 106, 6-Amino-2-{[(1S)-1-methylbutyl]oxy}-9-{3-[1-(1-methylethyl)-4-piperidinyl]propyl}-7,9-dihydro-8H-purin-8-one], the EC50 is below 0.000316 µM in the test with Interferon-α [1], above 0.0316 µM with TNF-α and below 1.58 µM in the test with Interferon-α [2].

In the case of `CCCCOc1nc(N)c2[nH]c(=O)n(CCC3CCN(C4CCCC4)CC3)c2n1` [Example 86, 6-Amino-2-(butyloxy)-9-[2-(1-cyclopentyl-4-piperidinyl)ethyl]-7,9-dihydro-8H-purin-8-one], the EC50 in the test with Interferon-α [2] is below 1.58 µM.

Take `CCCCOc1nc(N)c2[nH]c(=O)n(CCCC3CCCCN3CC3CCCC3)c2n1` (stereo not drawn) [Example 21, 6-Amino-2-(butyloxy)-9-{3-[1-(cyclopentylmethyl)-2-piperidinyl]propyl}-7,9-dihydro-8H-purin-8-one]: the EC50 with Interferon-α [2] is below 1.58 µM.

Regarding `CCCCOc1nc(N)c2[nH]c(=O)n(CCCC3CCCCN3CCC)c2n1` (stereo not drawn) [Example 15, 6-Amino-2-(butyloxy)-9-[3-(1-propyl-2-piperidinyl)propyl]-7,9-dihydro-8H-purin-8-one], the EC50 with Interferon-α [2] is below 1.58 µM.

On to `CCCCOc1nc(N)c2[nH]c(=O)n(CCCCCCC3CCNCC3)c2n1` [Example 132, 6-Amino-2-(butyloxy)-9-[6-(4-piperidinyl)hexyl]-7,9-dihydro-8H-purin-8-one hydrochloride], for which the EC50 with Interferon-α [2] is below 1.58 µM.

As to `CCCCOc1nc(N)c2[nH]c(=O)n(CCCC3CCCN(C4CCCC4)C3)c2n1` (stereo not drawn) [Example 50, 6-Amino-2-(butyloxy)-9-[3-(1-cyclopentyl-3-piperidinyl)propyl]-7,9-dihydro-8H-purin-8-one], in the test on Interferon-α [2], the EC50 was below 1.58 µM.

With `CCCCOc1nc(N)c2[nH]c(=O)n(CCCC3CCN(C(CC)CC)CC3)c2n1` [Example 98, 6-Amino-2-(butyloxy)-9-{3-[1-(1-ethylpropyl)-4-piperidinyl]propyl}-7,9-dihydro-8H-burin-8-one], in the test on Interferon-α [2], the EC50 is below 1.58 µM.

For the compound `CCC[C@H](C)Oc1nc(N)c2[nH]c(=O)n(CCCC3CCCN(CC)C3)c2n1` (stereo partly drawn) [Example 54, 6-Amino-9-[3-(1-ethyl-3-piperidinyl)propyl]-2-{[(1S)-1-methylbutyl]oxy}-7,9-dihydro-8H-purin-8-one], the EC50 in the test on Interferon-α [2] is below 1.58 µM.

With `CCCCOc1nc(N)c2[nH]c(=O)n(CC3CCCN(CC(C)C)C3)c2n1` (stereo not drawn) [Example 26, 6-Amino-2-(butyloxy)-9-{[1-(2-methylpropyl)-3-piperidinyl]methyl}-7,9-dihydro-8H-purin-8-one], the EC50 in the test on Interferon-α [2] was below 1.58 µM.

For `CCCCOc1nc(N)c2[nH]c(=O)n(CCCC3CCCN(CCC)C3)c2n1` (stereo not drawn) [Example 45, 6-Amino-2-(butyloxy)-9-[3-(1-propyl-3-piperidinyl)propyl]-7,9-dihydro-8H-purin-8-one], the EC50 with Interferon-α [2] was below 1.58 µM.

For the compound `CCCCOc1nc(N)c2[nH]c(=O)n(CC3CCN(CC(C)C)CC3)c2n1` [Example 73, 6-Amino-2-(butyloxy)-9-{[1-(2-methylpropyl)-4-piperidinyl]methyl}-7,9-dihydro-8H-purin-8-one], the EC50 with Interferon-α [2] was below 1.58 µM.

As to `CCCCOc1nc(N)c2[nH]c(=O)n(CCC3CCN(CCC(C)C)CC3)c2n1` [Example 85, 6-Amino-2-(butyloxy)-9-{2-[1-(3-methylbutyl)-4-piperidinyl]ethyl}-7,9-dihydro-8H-purin-8-one], the EC50 in the test on Interferon-α [2] was below 1.58 µM.

Regarding `CCCCOc1nc(N)c2[nH]c(=O)n(CCCC3CCCN(CC4CCCC4)C3)c2n1` (stereo not drawn) [Example 51, 6-Amino-2-(butyloxy)-9-{3-[1-(cyclopentylmethyl)-3-piperidinyl]propyl}-7,9-dihydro-8H-purin-8-one hydrochloride], the EC50 in the test with Interferon-α [2] was below 1.58 µM.
